Where “and” joins values, the source holds several entries; their conditions need not be identical. Equal entries are not always repeated.
Experiments:
[1] = Plasma concentrations in paediatric patients after oral dosing; type: in vivo, human; conditions: for Plasma concentrations: oral with food, 1 to 13 year old epilepsy patients
[2] = tested on: rats; assay: Oral and IV single- and repeat-dose toxicology studies; type: in vivo, rat
[3] = Integrated adverse events from placebo controlled studies of ganaxolone; type: in vivo, human; conditions: Ganaxolone n = 750, placebo controlled studies
Excerpt: As noted in Table 6, across multiple placebo controlled studies of ganaxolone across multiple indications including epilepsy, few side effects are reported that occur at a rate higher than those reported in placebo-treated subjects. These side effects are generally mild and have always been reversible. […] Four of the 7 children enrolled into this study remain on ganaxolone. Adverse events in this study are similar to those reported for all placebo controlled studies completed to date as summarized in Table 6 below.

[4] = tested on: children with Lennox-Gastaut Syndrome; assay: Phase 2 open-label trial, LGS cohort, seizure efficacy; type: in vivo, human
Excerpt: Example 3 concerns a Phase 2 Multicenter, Open-Label Proof-of-Concept Trial of ganaxolone (GNX) in cohorts of children having genetic epilepsies (PCDH19, CDKL5 LGS, and CSWS) (ClinicalTrials.gov Identifier: NCT02358538). There were 11 female children with PCDH19 epilepsy between 5-16 years old with a confirmed genetic mutation. There were 6 female and 1 male children with confirmed genetic mutations in the CDKL5 cohort. There were 10 children in the Lennox Gastaut Syndrome cohort. Two children with CSWS were enrolled into the study. The study was conducted with 12 weeks baseline, and up to 26 weeks of treatment followed by a 52 week open label treatment. The primary efficacy was the percentage change in seizure frequency per 28 days relative to baseline calculated using daily seizure diary. [Time Frame: 26 weeks]. Secondary Outcome Measures were: Clinician Global Impression of Change score as assessed by questionnaire. [Time Frame: 26 Weeks]; Patient Global Impression of Change score as assessed by questionnaire. [Time Frame: 26 Weeks]; Evaluation of safety and tolerability of open-label ganaxolone as adjunctive therapy for uncontrolled seizures in children with rare genetic epilepsies, based on adverse event log and other clinical safety assessments. [Time Frame: 26 weeks]; Responder rates [Time Frame: 26 weeks]; and Seizure free days [Time Frame: 26 weeks].
Following screening and baseline evaluations, consenting patients enrolled into a 26-week study during which investigators were allowed to flexibly dose ganaxolone up to a dose of 1,800 mg/day for patients whose body weight was >30 kg, or up to 63 mg/kg/day for patients whose body-weight was <30 kg. The primary efficacy measure is % change from baseline in the 28-day seizure frequency count. Safety and tolerability were within the secondary objectives of the study.
In this study, oral ganaxolone suspension or capsules were administered up to a total of 63 mg/kg/day (maximum 1800 mg/day) over 2-4 weeks. About six-eight titration steps are used, depending on the size of the patient. Children larger than 30 kg may take the ganaxolone capsules. The ganaxolone oral suspension was administered through an oral dosing syringe three times daily. The ganaxolone capsules were administered twice daily. The patients experience better absorption of the ganaxolone with meals (milk).
After establishing baseline seizure frequency, qualifying subjects entered the study and were treated with open-label ganaxolone oral suspension or ganaxolone capsules at doses up to a maximum of 1800 mg/day for up to 6 months. Maximum study participation was 94 weeks: a screening period up to 12 weeks to establish baseline seizure frequency, up to 26 weeks of treatment, a 52 week extension for subjects who benefited from ganaxolone treatment, and up to 4 weeks of down titration period. […] Refractive cases of LGS or CSWS that had prior response to steroid or ACTH could also have been enrolled.
Ganaxolone oral suspension was administered through an oral dosing syringe by parent or legal guardian 3 times daily (TID), following the morning, noon, and evening meal or snack. Each dose was separated by a minimum of 4 hours and a maximum of 8 hours. A missed dose of ganaxolone could have been taken up to 4 hours before the next scheduled dose; otherwise, the missed dose was not to be given.
Ganaxolone capsules were administered with a glass of water or other liquid 2 times daily (BID), following the morning and evening meal or snack. Ganaxolone was provided as either an oral suspension or capsules based on the subject's weight at study entry. Ganaxolone oral suspension was administered through an oral dosing syringe TID by a parent or guardian, following the morning, midday, and evening meal or snack. Each dose was separated by a minimum of 4 hours and a maximum of 8 hours. Ganaxolone capsules were administered BID, following the morning and evening meal or snack. […]

[5] = Multiple dose PK, 0.3 micron capsules 600, 800, 1000 mg BID escalating, healthy volunteers; type: in vivo, human; conditions: for Cmax: steady state
Description: Multiple-dose studies of oral ganaxolone formulations were conducted in healthy volunteers. The 0.3 micron ganaxolone capsules were administered BID with a standard meal or snack for 7 days and at increasing doses.
Steady-state was reached within 3 days of administration of 600, 800 and 1000 mg BID ganaxolone to healthy subjects. The medium and high dose regimens were started after 3 days on the low dose and medium dose regimens, respectively. In general, ganaxolone was rapidly absorbed following PO administration and the mean Cmax was attained within 2 hours after multiple dosing; median Tmax was independent of dose level. […] Proportionality was conserved from 600 mg to 800 mg.
Values at Day 6.5, 9.5 and 12.5 are from evening samples collected 12 hrs after the last dose on PK sampling days. Subjects received 600 mg ganaxolone BID on Days 4-6; 800 mg ganaxolone BID on Days 7-9; and 1000 mg ganaxolone BID on Days 10-12.

[6] = tested on: rats or mice; assay: Reproductive/developmental toxicity and mutagenicity; type: in vivo
[7] = oral suspension formulation, 3 to 18 mg/kg TID, patients aged 4 to 41 months

Question: Which Plasma concentrations ([1]; 1 mg/kg TID) does the source give for `CC(=O)[C@H]1CC[C@H]2[C@@H]3CC[C@H]4C[C@](C)(O)CC[C@]4(C)[C@H]3CC[C@]12C` [Ganaxolone, 3α-hydroxy-3β-methyl-5α-pregnan-20-one] here?
Answer: up to 5.78 ng/mL

Question: What about the Trough concentrations ([1]; 12 mg/kg TID, humans about 0.6 to about 7 years old) of the same molecule?
Answer: at least 38.5±37.4 ng/mL

Question: What about the Plasma concentrations ([1]; 12 mg/kg TID) of the same molecule?
Answer: 10.3 to 16.1 ng/mL

Question: And the concentration at 4 weeks ([1]; human, plasma, oral, β-cyclodextrin formulation with food, 6 mg/kg BID to 12 mg/kg TID, 5-15 year old, read-out: Plasma concentrations at week 4)?
Answer: ≤ 22.1 ng/mL

Question: And the concentration at 8 weeks ([1]; human, plasma, oral, β-cyclodextrin formulation with food, 6 mg/kg BID to 12 mg/kg TID, 5-15 year old, read-out: Plasma concentrations at week 8)?
Answer: 5.7 to 43.7 ng/mL

Question: And the Cmax [1, 7]?
Answer: about 123 ng/mL

Question: What about the Trough concentration [1, 7] of the same molecule?
Answer: about 23 ng/mL

Question: And the “Most common effect in toxicology studies” value ([2]; oral and IV programmes)?
Answer: dose-related sedation

Question: What about the “Findings correlated to hepatic enzyme induction” value ([2]; rats, 6-month study, more pronounced in females) of the same molecule?
Answer: increased liver weights and dose related hepatocellular hypertrophy

Question: And the “Adverse event: Dizziness” value [3]?
Answer: 95 (13%) n (%)

Question: And the “Adverse event: Fatigue” value [3]?
Answer: 51 (7%) n (%)

Question: What about the “Adverse event: Headache” value [3] of the same molecule?
Answer: 37 (5%) n (%)

Question: And the “Adverse event: Somnolence” value [3]?
Answer: 134 (18%) n (%)

Question: And the “28-day seizure frequency, sum of individual seizures and clusters, post-baseline 26-week open-label period, Mean (SD)” value ([4]; LGS N=10, MITT)?
Answer: 263.66 (502.176)

Question: What about the “28-day seizure frequency, sum of individual seizures and clusters, post-baseline 26-week open-label period, Median” value ([4]; LGS N=10, MITT) of the same molecule?
Answer: 65.08

Question: And the “28-day seizure frequency, sum of individual seizures and clusters, post-baseline through Month 3 (Day 91), Mean (SD)” value ([4]; LGS N=10, MITT)?
Answer: 263.91 (502.477)

Question: What about the “28-day seizure frequency, sum of individual seizures and clusters, post-baseline through Month 3 (Day 91), Median” value ([4]; LGS N=10, MITT) of the same molecule?
Answer: 75.91

Question: What about the “Percent change from baseline (at Day 91), 28-day seizure frequency, sum of individual seizures and clusters, Mean (SD)” value ([4]; LGS N=10, MITT) of the same molecule?
Answer: 122.10% and 122.10 (321.124) %

Question: What about the “Percent change from baseline (at Week 26), 28-day seizure frequency, sum of individual seizures and clusters, Mean (SD)” value ([4]; LGS N=10, MITT) of the same molecule?
Answer: 125.38% and 125.38 (319.051) %

Question: What about the “Percent change from baseline (at Week 26), 28-day seizure frequency, sum of individual seizures and clusters, Median” value ([4]; LGS N=10, MITT) of the same molecule?
Answer: −9.19%

Question: And the “Mean percent change in 28-day total seizure frequency from baseline to Week 26” value ([4]; LGS cohort, PP Population)?
Answer: 18.43%

Question: And the “Median percent change in 28-day total seizure frequency from baseline to Week 26” value ([4]; LGS cohort, PP Population)?
Answer: 11.15%

Question: And the “Clinical global impression of improvement: much improved” value ([4]; LGS cohort, end of Week 26)?
Answer: 1 subject

Question: What about the “Clinical global impression of improvement: very much improved” value ([4]; LGS cohort, end of Week 26) of the same molecule?
Answer: 1 subject

Question: And the “Percent change from baseline (at Day 91), 28-day individual seizure frequency, Mean (SD)” value ([4]; LGS n=9, MITT)?
Answer: 226.72% and 226.72 (496.750) %

Question: And the “Percent change from baseline (at Day 91), 28-day individual seizure frequency, Median” value ([4]; LGS n=9, MITT)?
Answer: −9.56%

Question: And the “Percent change from baseline (at Week 26), 28-day individual seizure frequency, Mean (SD)” value ([4]; LGS n=9, MITT)?
Answer: 229.90% and 229.90 (494.164) %

Question: What about the “Percent change from baseline (at Week 26), 28-day individual seizure frequency, Median” value ([4]; LGS n=9, MITT) of the same molecule?
Answer: 5.04%

Question: What about the “28-day individual seizure frequency, post-baseline 26-Week open-label period, Mean (SD)” value ([4]; LGS n=10, MITT) of the same molecule?
Answer: 257.07 (503.453)

Question: What about the “28-day individual seizure frequency, post-baseline 26-Week open-label period, Median” value ([4]; LGS n=10, MITT) of the same molecule?
Answer: 55.93

Question: And the “28-day individual seizure frequency, post-baseline through Month 3 (Day 91), Mean (SD)” value ([4]; LGS n=10, MITT)?
Answer: 256.48 (503.934)

Question: What about the “28-day individual seizure frequency, post-baseline through Month 3 (Day 91), Median” value ([4]; LGS n=10, MITT) of the same molecule?
Answer: 64.71

Question: What about the Time to steady-state ([5]; 600, 800 and 1000 mg BID, 0.3 micron capsules) of the same molecule?
Answer: ≤ 3 days

Question: What about the “Mean fluctuation at steady-state” value ([5]; 600 to 1000 mg BID) of the same molecule?
Answer: 172% to 191%

Question: And the Cmax ([5]; human, plasma, oral, 600 mg BID, 0.3 micron capsules)?
Answer: 224 ng/mL

Question: And the Cmax ([5]; human, plasma, oral, 800 mg BID, 0.3 micron capsules)?
Answer: 263 ng/mL

Question: What about the Cmax ([5]; human, plasma, oral, 1000 mg BID, 0.3 micron capsules) of the same molecule?
Answer: 262 ng/mL

Question: What about the clearance ([5]; human, plasma, oral, 600 to 1000 mg BID, read-out: Mean apparent total body CL at steady-state) of the same molecule?
Answer: 10200 to 12800 mL/min

Question: What about the “Dose through which pharmacokinetics are linear” value ([5]; immediate release 0.3-micron particles, given BID) of the same molecule?
Answer: approximately 1200 mg/day

Question: What about the Mutagenicity ([6]; in vivo) of the same molecule?
Answer: No potential for mutagenicity

Question: And the “Effects on fertility and early embryonic development” value ([6]; rats)?
Answer: no effects

Question: What about the Teratogenicity ([6]; rats or mice) of the same molecule?
Answer: not teratogenic

Source: patent US20250082651A1, “GANAXOLONE FOR USE IN TREATING GENETIC EPILEPTIC DISORDERS” (Marinus Pharmaceuticals, Inc., priority 2017, published 2025)
